Assays:
Assay in all cases: In vitro antifungal activity, microbroth dilution MIC
Assay type in all cases: cell-based
[1] = test system: Aspergillus furnigatus B. 19119; settings: RPMI-1640, 35° C., no growth observed
In short: (§1)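 Broth microdilution adapted from NCCLS M27, in RPMI-1640 with 0.165 M MOPS, pH 7.0. Yeast or mould inoculum at 2×10^3 CFU/ml was mixed 1:1 with DMSO-derived compound solutions (200 to 0.10 μg/ml before mixing) and incubated at 35 °C for 4 to 48 h. MIC was the concentration showing no growth.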

[2] = test system: Aspergillus niger A. 16404; settings: RPMI-1640, 35° C., no growth observed
In short: as §1

[3] = test system: Candida albicans A. 10231; settings: RPMI-1640, 35° C., 4 to 48 hours, no growth observed
In short: as §1

Candida albicans C1-2 = settings: RPMI-1640, 35° C., 4 to 48 hours, no growth observed
In short: as §1

[4] = test system: Candida albicans IFO. 1385; settings: RPMI-1640, 35° C., 4 to 48 hours, no growth observed
In short: as §1

Candida krusei K. 11655 = settings: RPMI-1640, 35° C., 4 to 48 hours, no growth observed
In short: as §1

[5] = test system: Candida parapsitosis A. 7330; settings: RPMI-1640, 35° C., 4 to 48 hours, no growth observed
In short: as §1

[6] = test system: Candida pseudotropicalis K. 11658; settings: RPMI-1640, 35° C., 4 to 48 hours, no growth observed
In short: as §1

[7] = test system: Candida tropicalis A. 13803; settings: RPMI-1640, 35° C., 4 to 48 hours, no growth observed
In short: as §1

[8] = test system: Cryptococcus neoformans A. 34144; settings: RPMI-1640, 35° C., no growth observed
In short: as §1

[9] = test system: Cryptococcus neoformans B. 42419; settings: RPMI-1640, 35° C., 4 to 48 hours, no growth observed
In short: as §1

[10] = test system: Cryptococcus neoformans IFM. 40092; settings: RPMI-1640, 35° C., no growth observed
In short: as §1

[11] = test system: Torulopsis glabrata B. 16205; settings: RPMI-1640, 35° C., 4 to 48 hours, no growth observed
In short: as §1

[12] = test system: Trichophyton mentagrophytes A. 9129; settings: RPMI-1640, 35° C., no growth observed
In short: as §1

[13] = test system: Trichophyton mentagrophytes B. 32663; settings: RPMI-1640, 35° C., no growth observed
In short: as §1

Structure (SMILES) | Minimal inhibitory concentration(MIC), A furnigatus B. 19119 ([1]; 4 to 48 hours) | Minimal inhibitory concentration(MIC), A. niger A. 16404 ([2]; 4 to 48 hours) | Minimal inhibitory concentration(MIC), C. albicans A. 10231 [3] | Minimal inhibitory concentration(MIC), C. albicans C1-2 (Candida albicans C1-2) | Minimal inhibitory concentration(MIC), C. albicans IFO. 1385 [4] | Minimal inhibitory concentration(MIC), C. krusei K. 11655 (Candida krusei K. 11655) | Minimal inhibitory concentration(MIC), C. parapsitosis A. 7330 [5] | Minimal inhibitory concentration(MIC), C. pseudotropicalis K. 11658 [6] | Minimal inhibitory concentration(MIC), C. tropicalis A. 13803 [7] | Minimal inhibitory concentration(MIC), Cry. neoformans A. 34144 ([8]; 4 to 48 hours) | Minimal inhibitory concentration(MIC), Cry. neoformans B. 42419 [9] | Minimal inhibitory concentration(MIC), Cry. neoformans IFM. 40092 ([10]; 4 to 48 hours) | Minimal inhibitory concentration(MIC), T. glabrata B. 16205 [11] | Minimal inhibitory concentration(MIC), T. mentagrophytes A. 9129 ([12]; 4 to 48 hours) | Minimal inhibitory concentration(MIC), T. mentagrophytes B. 32663 ([13]; 4 to 48 hours) | Minimal inhibitory concentration(MIC), A furnigatus B. 19119 [1] | Minimal inhibitory concentration(MIC), A. niger A. 16404 [2] | Minimal inhibitory concentration(MIC), Cry. neoformans A. 34144 [8] | Minimal inhibitory concentration(MIC), Cry. neoformans IFM. 40092 [10] | Minimal inhibitory concentration(MIC), T. mentagrophytes A. 9129 [12] | also measured
FC(=C(c1ccc(F)cc1)C(F)(F)F)N1CCN(c2ccc(OCC3COC(Cn4ccnc4)(c4ccc(Cl)cc4Cl)O3)cc2)CC1 (mixture of isomers) [Ex. 135] | >100 µg/mL | >100 µg/mL | >100 µg/mL | >100 µg/mL | 1.56 µg/mL | 1.56 µg/mL | 1.56 µg/mL | 1.56 µg/mL | >100 µg/mL | 0.39 µg/mL | 0.78 µg/mL | 0.20 µg/mL | >100 µg/mL | 3.13 µg/mL | 1.56 µg/mL |  |  |  |  |  | 
FC(=C(c1cc(Cl)cc(Cl)c1)C(F)(F)F)N1CCN(c2ccc(OCC3COC(Cn4ccnc4)(c4ccc(Cl)cc4Cl)O3)cc2)CC1 (mixture of isomers) [Ex. 136] | >100 µg/mL | >100 µg/mL | >100 µg/mL | >100 µg/mL | >100 µg/mL | >100 µg/mL | >100 µg/mL | >100 µg/mL | >100 µg/mL | >100 µg/mL | >100 µg/mL | 1.56 µg/mL | >100 µg/mL | >100 µg/mL | >100 µg/mL |  |  |  |  |  | 
FC(=C(c1ccccc1)C(F)(F)F)N1CCN(c2ccc(OCC3COC(Cn4ccnc4)(c4ccc(F)cc4F)O3)cc2)CC1 (mixture of isomers) [Ex. 138] | 12.5 µg/mL | 100 µg/mL | >100 µg/mL | >100 µg/mL | 0.78 µg/mL | 1.56 µg/mL | 0.78 µg/mL | 1.56 µg/mL | >100 µg/mL | 0.78 µg/mL | 0.78 µg/mL | ≦0.10 μg/ml | 100 µg/mL | 3.13 µg/mL | ≦0.10 μg/ml |  |  |  |  |  | 
Cc1cccc(C(=C(F)N2CCN(c3ccc(OCC4COC(Cn5ccnc5)(c5ccc(F)cc5F)O4)cc3)CC2)C(F)(F)F)c1 (mixture of isomers) [Ex. 139] | 25.0 µg/mL | 100 µg/mL | >100 µg/mL | >100 µg/mL | 0.78 µg/mL | 1.56 µg/mL | 0.78 µg/mL | 1.56 µg/mL | >100 µg/mL | 0.78 µg/mL | 0.78 µg/mL | ≦0.10 μg/ml | 100 µg/mL | 6.25 µg/mL | 0.39 µg/mL |  |  |  |  |  | 
CCCCc1ccc(C(=C(F)N2CCN(c3ccc(OCC4COC(Cn5ccnc5)(c5ccc(F)cc5F)O4)cc3)CC2)C(F)(F)F)cc1 (mixture of isomers) [Ex. 140] | 50.0 µg/mL | >100 µg/mL | >100 µg/mL | >100 µg/mL | 1.56 µg/mL | 3.13 µg/mL | 1.56 µg/mL | 1.56 µg/mL | >100 µg/mL | 1.56 µg/mL | 1.56 µg/mL | 0.39 µg/mL | 100 µg/mL | 12.5 µg/mL | 0.39 µg/mL |  |  |  |  |  | 
Cc1cc(C)cc(C(=C(F)N2CCN(c3ccc(OCC4COC(Cn5ccnc5)(c5ccc(F)cc5F)O4)cc3)CC2)C(F)(F)F)c1 (mixture of isomers) [Ex. 141] |  |  | >100 µg/mL | >100 µg/mL | 0.78 µg/mL | 1.56 µg/mL | 1.56 µg/mL | 3.13 µg/mL | >100 µg/mL |  | 0.78 µg/mL |  | 100 µg/mL |  |  | 50.0 µg/mL | >100 µg/mL | 1.56 µg/mL | 0.78 µg/mL | 6.25 µg/mL | Minimal inhibitory concentration(MIC), T. mentagrophytes B. 32663 [13]: 0.78 µg/mL
FC(=C(c1ccc(C(F)(F)F)cc1)C(F)(F)F)N1CCN(c2ccc(OCC3COC(Cn4ccnc4)(c4ccc(F)cc4F)O3)cc2)CC1 (mixture of isomers) [Ex. 142] |  |  | >100 µg/mL | >100 µg/mL | 3.13 µg/mL | 6.25 µg/mL | 3.13 µg/mL | 6.25 µg/mL | >100 µg/mL |  | 3.13 µg/mL |  | 100 µg/mL |  |  | 50.0 µg/mL | 100 µg/mL | 3.13 µg/mL | 0.39 µg/mL | 12.5 µg/mL | Minimal inhibitory concentration(MIC), T. mentagrophytes B. 32663 [13]: 1.56 µg/mL
COc1cccc(C(=C(F)N2CCN(c3ccc(OCC4COC(Cn5ccnc5)(c5ccc(F)cc5F)O4)cc3)CC2)C(F)(F)F)c1 (mixture of isomers) [Ex. 143] |  |  | >100 µg/mL | >100 µg/mL | 0.39 µg/mL | 1.56 µg/mL | 3.13 µg/mL | 6.25 µg/mL | >100 µg/mL |  | 0.39 µg/mL |  | 100 µg/mL |  |  | 100 µg/mL | >100 µg/mL | 3.13 µg/mL | 0.78 µg/mL | 6.25 µg/mL | Minimal inhibitory concentration(MIC), T. mentagrophytes B. 32663 [13]: 0.78 µg/mL

— patent US6376497B1, “Antifungal azole derivatives having a fluorinated vinyl group and process for preparing same” (Korea Research Institute of Chemical Technology, priority 1999, dated 2002)
